Key:
[1] = molecular target: T1, RIG-I (Retinoic acid-inducible gene I) (Homo sapiens, UniProt O95786); test: RNA-dependent ATPase assay (ADP-Glo) at […]; type: biochemical; parameters: gene RIGI; recombinant RIG-I
T1 sequence (O95786 1-925): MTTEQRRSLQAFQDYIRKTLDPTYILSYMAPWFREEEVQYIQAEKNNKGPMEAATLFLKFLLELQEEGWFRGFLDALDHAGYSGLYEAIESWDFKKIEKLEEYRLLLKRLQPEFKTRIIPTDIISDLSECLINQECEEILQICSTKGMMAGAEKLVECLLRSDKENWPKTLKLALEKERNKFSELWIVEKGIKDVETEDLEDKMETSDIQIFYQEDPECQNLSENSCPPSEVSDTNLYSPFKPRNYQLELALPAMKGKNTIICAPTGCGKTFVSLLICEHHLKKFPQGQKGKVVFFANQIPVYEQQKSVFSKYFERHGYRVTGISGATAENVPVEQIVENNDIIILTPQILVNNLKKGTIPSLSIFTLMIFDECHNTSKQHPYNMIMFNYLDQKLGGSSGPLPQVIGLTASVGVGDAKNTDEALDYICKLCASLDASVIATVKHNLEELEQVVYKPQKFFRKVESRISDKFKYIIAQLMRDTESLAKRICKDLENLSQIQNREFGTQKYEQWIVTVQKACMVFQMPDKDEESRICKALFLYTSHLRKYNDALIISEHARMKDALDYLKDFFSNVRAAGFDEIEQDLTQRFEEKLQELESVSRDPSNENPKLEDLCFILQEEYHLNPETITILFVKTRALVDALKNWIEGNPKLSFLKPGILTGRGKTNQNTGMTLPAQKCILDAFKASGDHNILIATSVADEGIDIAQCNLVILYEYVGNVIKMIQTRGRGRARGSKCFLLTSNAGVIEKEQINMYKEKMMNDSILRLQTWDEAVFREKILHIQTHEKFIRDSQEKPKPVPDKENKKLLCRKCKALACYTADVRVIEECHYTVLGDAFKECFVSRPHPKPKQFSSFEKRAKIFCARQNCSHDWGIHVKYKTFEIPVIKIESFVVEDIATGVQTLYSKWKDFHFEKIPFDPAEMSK

[2] = molecular target: T1, RIG-I (Retinoic acid-inducible gene I); test: RNA-dependent ATPase assay (ADP-Glo) with recombinant RIG-I; supported by native gel mobility shift; type: biochemical; parameters: gene RIGI; recombinant full length RIG-I

SMILES	RNA-dependent ATPase assay (ADP-Glo) at 0.5 and 1 μM [1]	IC50 [2] [µM]
O=C(O[C@@H]1Cc2c(O)cc(O)cc2O[C@H]1c1cc(O)c(O)c(O)c1)c1cc(O)c(O)c(O)c1 [GCG, gallocatechin gallate]	GCG, ECG, CG and TFDG inhibited the shR9-induced RIG-I ATPase activity to similar degree as EGCG	
O=C(O[C@@H]1Cc2c(O)cc(O)cc2O[C@@H]1c1ccc(O)c(O)c1)c1cc(O)c(O)c(O)c1 [ECG, epicatechin gallate]	GCG, ECG, CG and TFDG inhibited the shR9-induced RIG-I ATPase activity to similar degree as EGCG	
O=C(O[C@@H]1Cc2c(O)cc(O)cc2O[C@@H]1c1cc(O)c(O)c(O)c1)c1cc(O)c(O)c(O)c1 [EGCG, Epigallocatechin gallate]		< 0.5
